Experimental data as given in patent US20230357242A1, “COMPOUND AS AKT KINASE INHIBITOR” (CHIA TAI TIANQING PHARMACEUTICAL GROUP CO., LTD., priority 2020, published 2023).
Like-named read-outs stand apart in the source and are kept apart here.

Experiments:
[1] = Pharmacokinetic evaluation in mice; format: in vivo; design: Cl: unit not given here; details: ICR mice; for AUC(0-inf) / AUC(0-t) / Cmax / Tmax / bioavailability / MRT last / Vd: mouse, plasma; for bioavailability: IG 10 mg/kg vs IV 1 mg/kg, read-out: Absolute bioavailability F %; for MRT last: read-out: MRT(0-t)
Description: ICR mice, weight 18-22 g, after adaption for 3-5 days, were randomly divided into 4 groups of 9 mice, each group was intragastrically (IG) administered with compound 28 or compound 30 at a dose of 10 mg/kg, or intravenously (IV) administered with compound 28 or compound 30 at a dose of 1 mg/kg.
The animals to be tested (ICR mice) were fasted for 12 h before administration and food was provided 4 h after administration, and water was freely drunk before and after the experiment and during the experiment.
After intragastric administration, about 0.1 mL of blood was taken from eye sockets at 15 min, 30 min, 1 h, 2 h, 3 h, 4 h, 6 h, 8 h, 10 h, and 24 h; after intravenous injection, about 0.1 mL of blood was taken from eye sockets at 5 min, 10 min, 30 min, 1 h, 2 h, 4 h, 6 h, 8 h, 10 h, and 24 h; each mouse was collected at 3-4 time points and 3 mice were collected at each time point, whole blood was collected, placed in centrifuge tubes containing EDTA-K2, and stored at 4° C. within 1 h, and the plasma was separated off by centrifugation at 4° C. and 4000 rpm for 10 min. All the plasma samples were collected and immediately stored at −20° C. for testing. 30 μL of the plasma sample to be tested and a standard curve sample were pipetted and added with 300 μL of acetonitrile solution containing an internal standard (20 ng/mL diazepam), shaken and mixed well for 5 min, and centrifuged at 13,000 rpm for 10 min. 80 μL of supernatant was taken and diluted with 80 μL of ultrapure water. After being mixed well, 2 μL of the resulting sample was taken for liquid chromatography-mass determination, and a chromatogram was recorded.
Oral and intravenous exposure of the compound of the present application was evaluated by in vivo pharmacokinetic experiment in mice.

[2] = molecular target: T1, AKT1 (S473) (Homo sapiens, UniProt P31749); assay: Inhibitory effect on phosphorylation of LNcap cells AKT1 (S473); format: cell-based; details: 1 h incubation
T1 construct: endogenous in cells; host or cells: LNcap cells
Description: LNcap cells AKT1 (S473) growing at log phase were taken, digested with 1 mL of pancreatin for 3 min, and added with 4 mL of complete medium to terminate digestion. The cells were added to a centrifuge tube. 20 μL of cells were taken and counted, the required number of cells (mL) was taken and centrifuged at 1200 rpm for 5 min, and a plating medium (2% FBS+phenol-free red 1640 base medium+1% sodium pyruvate+1% glutamine) was added to adjust the cell density to about 1×10E6 cells/mL. The cells were plated (96 wells) at the above cell density (100 μL/well), and cultured in a cell incubator at 37° C., 5% CO2 overnight; the next day, according to the plate distribution, the corresponding compound was sprayed using a nanoliter pipettor and incubated for 1 h at 37° C. in a cell incubator containing 5% CO2; the supernatant was discarded, and the plate was added with 40 μL of lysis buffer (1×) containing blocking buffer and incubated by shaking at room temperature for 30 min. After the mixture was mixed, 16 μL of lysate was transferred to another 384-well small-volume white plate. The plate was added with 4 μL of pre-mixed antibody (v/v) in assay buffer, covered, centrifuged to mix well, and incubated overnight at room temperature. The 665 nm/620 nm signal value was detected using a PE Envision multi-functional microplate reader, and IC50 was calculated by four-parameter fitting.

[3] = system: AN3CA human endometrial cancer cells; assay: Pharmacodynamics in subcutaneous xenograft tumor nude mouse model of AN3CA human endometrial cancer cells; format: in vivo, BALB/C nude mice; details: for in vivo tumor inhibition effect (in words) / Relative tumor volume (mean ± SD) / Tumor volume (mm^3) (mean ± SD): AN3CA xenograft; for in vivo tumor inhibition effect (in words): 20 mg/kg i.g. qd; for Relative tumor volume (mean ± SD) / Tumor volume (mm^3) (mean ± SD) / Weight change rate (%) (mean ± SD) / TGI (%) / T/C (%): day 14, 20 mg/kg i.g. qd 14 d; for Weight change rate (%) (mean ± SD): body weight; for TGI (%): by tumor weight, ** p < 0.01 vs control; for T/C (%): relative tumor proliferation rate
Description: SPF-grade female BALB/C nude mice (from Changzhou Cavens Laboratory Animal Ltd.) were inoculated subcutaneously at the right side armpit with 5×10^6 AN3CA cells (sourec: Nanjing Cobioer Biosciences Co., Ltd.).
The day of grouping was determined as do, and the intragastric administration was started on the grouping day, and the administration volume was 10 mL/kg. The solvent was: D5W (5% glucose solution). The tumor volume was measured 2-3 times a week, meanwhile, the mice were weighed and the data were recorded; the general behavior of the mice was observed and recorded every day. After the experiment was completed, the tumors were removed, weighed and photographed.
Calculation formula for tumor volume: Tumor volume (mm^3)=½×(a×b^2) (where a represents long diameter and b represents short diameter).
Relative tumor proliferation rate (T/C %) refers to the percentage of the relative tumor volume of the treatment and control groups at a certain time point. The calculation formula is as follows: T/C %=TRTV/CRTV×100% (TRTv: mean relative tumor volume (RTV) for treatment group; CRTV: mean RTV for vehicle control group; RTV=TVt/TV0, where TV0 is the tumor volume at grouping, TVt is the tumor volume after treatment).
The calculation formula for weight change rate (WCR) (%) is: WCR=(Wtt−Wt0)/Wt0×100%, where Wt0 is the body weight of the animal at grouping (i.e., d0), Wtt is the body weight of the animal at each measurement.
All experimental results are expressed as mean±SD (mean±standard deviation). The relative tumor volume of the treatment group was compared with that of the control group for any significant difference by T tests, wherein p<0.01 indicates a very significant difference.

[4] = system: LNcap cells; assay: Inhibitory effect on proliferation of LNcap cells (CCK-8, 72 h); format: cell-based; details: Homo sapiens, LNcap cells, CCK-8, read-out: LNcap cells IC50
Description: A dish of LNcap cells (human prostate cancer cells with PTEN deficiency) growing at log phase and in good conditions were taken and digested for 3 min by using 1 mL of pancreatin, then the mixture was added with 4 mL of complete culture medium to terminate digestion, and the cells were added to a centrifuge tube. 20 μL of cells were taken and counted, the required number of cells (mL) was pipetted and centrifuged at 1200 rpm for 5 min, the supernatant was discarded, and an appropriate amount of plating medium (RPMI medium+5% FBS+1% sodium pyruvate+1% glutamine) was added to adjust the cell density to 3×10^4 cells/mL. The cells were seeded on a 96-well plate at 100 μL/well using a multi-channel pipette and cultured in a cell incubator at 37° C., 5% CO2 and saturated humidity. After incubation overnight, compounds were loaded using a nanoliter pipettor, 2 duplicate wells were set for each concentration, and cells without compound were used as negative controls. After 72 h, CCK-8 was added at 10 μL/well for incubation for 4 h, then absorbance was measured at 450 nm with an Envision plate reader, and inhibition rate was calculated. Inhibition rate (%)=(mean value of negative control group−mean value of experimental group)/(mean value of negative control group−mean value of blank group)×100%. A dose-response curve was fitted by four-parameter analysis, with the logarithm of compound concentration as abscissa and inhibition rate as ordinate, so that IC50 was calculated.

T1 sequence (P31749 whole entry): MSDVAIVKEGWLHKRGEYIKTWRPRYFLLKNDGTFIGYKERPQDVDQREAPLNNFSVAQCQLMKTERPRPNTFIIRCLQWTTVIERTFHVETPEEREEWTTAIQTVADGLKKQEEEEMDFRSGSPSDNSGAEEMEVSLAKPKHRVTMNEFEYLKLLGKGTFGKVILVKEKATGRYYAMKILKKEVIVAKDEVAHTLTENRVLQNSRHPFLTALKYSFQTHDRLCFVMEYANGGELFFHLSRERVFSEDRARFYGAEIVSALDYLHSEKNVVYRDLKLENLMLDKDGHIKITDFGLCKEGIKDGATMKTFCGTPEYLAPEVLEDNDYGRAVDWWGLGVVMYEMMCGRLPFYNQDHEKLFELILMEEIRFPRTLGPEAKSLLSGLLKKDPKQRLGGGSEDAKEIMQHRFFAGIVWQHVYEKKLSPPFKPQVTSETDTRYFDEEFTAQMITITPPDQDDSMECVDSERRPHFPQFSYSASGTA

| t1/2z ([1]; IG 10 mg/kg) [h] | Cl ([1]; IV 1 mg/kg) | t1/2z ([1]; IV 1 mg/kg) [h] | AUC(0-inf) ([1]; po, IG 10 mg/kg) [ng·h/mL] | AUC(0-t) ([1]; po, IG 10 mg/kg) [ng·h/mL] | Cmax ([1]; po, IG 10 mg/kg) [ng/mL] | Tmax ([1]; po, IG 10 mg/kg) [h] | bioavailability ([1]; po) [%] | MRT last ([1]; po, IG 10 mg/kg) [h] | AUC(0-inf) ([1]; IV 1 mg/kg) [ng·h/mL] | AUC(0-t) ([1]; IV 1 mg/kg) [ng·h/mL] | Vd ([1]; IV 1 mg/kg) [L/kg] | MRT last ([1]; IV 1 mg/kg) [h] | IC50 [2] [nM] | Compound | in vivo tumor inhibition effect (in words) [3] | Relative tumor volume (mean ± SD) [3] | Tumor volume (mm^3) (mean ± SD) [3] | Weight change rate (%) (mean ± SD) [3] | TGI (%) [3] [%**] | T/C (%) [3] [%] | also measured |
| --- | --- | --- | --- | --- | --- | --- | --- | --- | --- | --- | --- | --- | --- | --- | --- | --- | --- | --- | --- | --- | --- |
| 5.31 | 3.95 | 1.74 | 896 | 871 | 140 | 2 | 35.4 | 5.28 | 253 | 246 | 9.92 | 1.49 | 28 | CC(=O)N1CC2(C1)CN(c1cccc(-c3ccc4nc(-c5cccnc5N)n(-c5ccc(C6(N)CCC6)cc5)c4n3)c1F)C2 [Compound 28] | strong in vivo tumor inhibition effects | 10.5 ± 3.4 | 1267 ± 249 | 4.9 ± 2.7 | 53.2 | 44.3 | IC50 [4]: 3 nM |
| 6.58 | 2.08 | 1.48 | 2880 | 2770 | 542 | 2 | 58.2 | 5.01 | 482 | 476 | 4.43 | 1.04 | 22 | Nc1ncccc1-c1nc2ccc(-c3cccc(N4CCC(N5CCCC5=O)CC4)c3F)nc2n1-c1ccc(C2(N)CCC2)cc1 [Compound 30] | strong in vivo tumor inhibition effects | 9.7 ± 2.2 | 1242 ± 354 | 2.3 ± 3.5 | 58.4 | 40.9 | IC50 [4]: 4.8 nM |
